Results taken from US8410152B2 (Max-Planck-Gesellschaft zur Forderung der Wissenschaften e. …, priority 2006, dated 2013).
pIC50: −log10 of the molar value. Where two headings read alike, the source gives them in different places.

Legend:
[1] = target: tau construct K19 (Homo sapiens, UniProt P10636); experiment: Thioflavine S (ThS) assay for aggregation of tau; assay type: biochemical
Procedure: Thioflavine S (ThS) Assay for aggregation of tau: 10 μM of the tau construct K19 were incubated with compounds in a concentration range from 1 nM up to 200 μM in the presence of 2.5 μM heparin in 50 mM NH4Ac buffer over night at 37° C. After addition of 20 μM ThS the signal was measured at 521 nm (emission) at an excitation wavelength of 440 nm. The results of this assay are presented in the IC50 column and DC50 column of Table 1 below.

[2] = tested on: uninduced N2A cells; assay type: cell-based; conditions: cell death as percent of LDH released into medium vs total LDH, compound 10 μM
Procedure: Neurotoxicity assay: Neurotoxicity was assessed using an LDH (lactate dehydrogenase) assay kit (Roche, Mannheim, Germany) according to the manufacturer's specifications. In the viability assay the aggregation inhibitor compound was added at a final concentration of 10 μM to uninduced N2A cells. The activity of LDH was measured spectrophotometrically at 492 nm. Cell death was calculated as percent of LDH released into medium, compared to total LDH obtained after total cell lysis.

[3] = tested on: N2a/K18ΔK280 cells; experiment: Tau aggregation and inhibition assay in cells (ThS staining); assay type: cell-based; conditions: for inhibition at 10 µM: 120 h, read-out: Inhibition in cells
Procedure: Selection of an N2a, Tet-On, G418-resistant cell line: N2a cells were cotransfected with both the pUHD172-1 plasmid (encoding the rtTA, obtained from H. Bujard, Heidelberg) and pEU-1 plasmid (encoding G418 resistance, a derivative of pRc/CMV, Invitrogen) (ratio 20:1; 1 μg/well of 6-well plates) using the DOTAP transfection reagent (Roche, Basel, CH). The cells were cultured in Eagle's Minimum Essential Medium (MEM) supplemented with 10% defined fetal bovine serum and subjected to G418 (600 μg/ml) and selection. The cells were fed with fresh media every 4 days for 3-4 weeks when single colonies appeared. Clones were tested for the induction level by transient transfection of pUHG 16-3 plasmid and the induction of β-galactosidase was measured.
Generation of inducible Tet-On cell lines: The DNA fragments encoding the appropriate tau constructs (K18WT, K18ΔK280, K18/ΔK280/PP) were inserted into the bidirectional vector pBI-5 between ClaI and SalI restriction sites (pBI-5 is an unpublished derivative of pBI-2, Baron et al., 1995). The pBI-5/K18-derived plasmids with pX343 (plasmid encoding the hygromycin resistance) were used for cotransfection of N2a/Tet-On, G418-resistant cells with the aid of DOTAP (20:1 plasmid ratio; 1 μg/well of 6-well plates). The cells were seeded at 4×10^5 cells per well. On the following day cells were transferred to 100-mm dishes and selected with 100 μg/ml of hygromycin and 600 μg/ml of G418. Clonal cell lines were screened for the inducible expression of K18 derivatives by measuring luciferase activity with the luciferase assay and immunofluorescence for tau protein with the polyclonal pan-tau antibody K9JA.
Induction of K18-derivatives in Tet-On N2a cells: The inducible N2a/K18-derivatives cells were cultured in MEM medium supplemented with 10% fetal calf serum, 2 mM glutamine and 0.1% nonessential amino acids. The expression of K18 constructs was induced by adding 1 μg doxycyclin (Dox) per 1 ml medium. The induction was continued for 7-11 days, the medium was changed 3 times (always complemented with doxycyclin). For tau solubility assays the cells were collected by pelleting during centrifugation at 1000×g for 5 min. The levels and solubility of tau K18/ΔK280 were determined following Greenberg and Davies (1990). The cells were homogenized (DIAX900, Heidolph, Schwabach, Germany) in 10 vol (w/v) of buffer consisting of 10 mM Tris-HCl (pH 7.4), 0.8 M NaCl, 1 mM EGTA, and 10% sucrose. The homogenate was spun for 20 min at 20000×g, and the supernatant was retained. The pellet was re-homogenized in 5 vol of homogenization buffer and re-centrifuged. Both supernatants were combined, brought to 1% N-laurylsarkosinate (w/v) and incubated for 1 hr at room temperature while shaking, followed by centrifugation at 100 000×g for 1 hr. The sarkosyl-insoluble pellets were resuspended in 50 mM Tris-HCl (pH 7.4), 0.5 ml per 1 g of starting material. The supernatant and sarkosyl-insoluble pellet samples were analyzed by Western blotting. The amount of material loaded for supernatant and sarkosyl-insoluble pellet represented about 0.5% and 15% of the total material present in the supernatant and pellet respectively (the ratio between supernatant and sarkosyl insoluble pellet was always 1:30). For quantification of tau levels in each fraction, the Western blots were probed with pan-tau antibody K9JA and analyzed by densitometry (LAS 3000 and AIDA software, Raytest, Straubenhardt, Germany).
Quantitation of tau aggregation in cells by Thioflavin S (ThS) staining: Tet-On inducible undifferentiated N2a cells were treated with 1 μg/ml doxycyclin for 5, 7 or 9 days in a culture dish. After that the cells were trypsinized and transferred to coverslips and incubated overnight. The cells on the coverslips were fixed with 4% paraformaldehyde in PBS for 15 min, then permeabilized with 80% MeOH for 6 min at −20° C., and incubated with 0.1% Thioflavin S for 5 min and washed three times in ethanol (50%). […]

[4] = 10 μM tau construct K19, 2.5 μM heparin, ThS fluorescence
[5] = 10 μM tau construct K19, 2.5 μM heparin, ThS fluorescence, read-out: DC50
[6] = 10 μM tau construct K19, 2.5 μM heparin, over night at 37° C., ThS fluorescence, read-out: ID50 (the source's name)
[7] = N2a/K18ΔK280 cells, compound 10 μM with doxycyclin, 5 days, ThS-positive cells scored

Chain of tau construct K19 (P10636 with tags, fused parts or gaps isoform P10636-2 limits assumed): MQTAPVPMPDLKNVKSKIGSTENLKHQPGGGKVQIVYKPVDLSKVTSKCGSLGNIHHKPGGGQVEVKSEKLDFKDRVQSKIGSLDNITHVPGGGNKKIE

Structure (SMILES)	pIC50 [1]	DC50 [1, 4]	LDH [2]	Inhibition in cells (result in words: cytotoxicity) ([3]; N2a/K18ΔK280 cells, compound 10 μM, 5 days)	inhibition at 10 µM [3]	DC50 [1, 5]	pIC50 [1, 6]	inhibition at 10 µM [3, 7]
O=C(NNc1nc(-c2ccc3ccccc3c2)cs1)c1cc2ccccc2[nH]1 [Comp. 59, N′-[4-(2-naphthyl)-1,3-thiazol-2-yl]-1H-indole-2-carbohydrazide]	3.89	138 µM	1.9%	Cytotoxic at 5 d	–	–	–	–
O=C(NNc1nc(-c2ccc(Cl)cc2)cs1)c1cc2ccccc2[nH]1 [Comp. 55, N′-[4-(4-chlorophenyl)-1,3-thiazol-2-yl]-1H-indole-2-carbohydrazide]	4.05	105 µM	−1.1%	–	54%	–	–	–
O=C(NNc1nc2c(s1)Cc1ccccc1-2)c1cc2ccccc2[nH]1 [Comp. 52, N′-8H-indeno[1,2-d][1,3]thiazol-2-yl-1H-indole-2-carbohydrazide]	4.31	89.1 µM	−9.6%	–	53.2%	–	–	–
COc1ccc(C(=O)NNc2nc(C3C4CC5CC(C4)CC3C5)cs2)cc1 (centres unmarked) [Comp. 65, N′-[4-(2-adamantyl)-1,3-thiazol-2-yl]-4-mathoxybenzohydrazide]	–	–	39.4%	–	–	> 200 µM	3.95	42.1%
O=C(NNc1nc(-c2ccc([N+](=O)[O-])cc2)cs1)c1ccc2c(c1)OCO2 [Comp. 13, N′-[4-(4-nitrophenyl)-1,3-thiazol-2-yl]-1,3-benzodioxole-5-carbohydrazide]	–	–	9.3%	–	66.1%	0.7 µM	5.41	–
Cc1nc(NNC(=O)c2ccc(F)cc2)sc1-c1ccc(Br)cc1 [Comp. 63, N′-[5-(4-bromophenyl)-4-methyl-1,3-thiazol-2-yl]-4-fluorobenzohydrazide]	–	–	1.2%	–	50%	15.9 µM	4.87	–
COc1cc(-c2csc(NNC(=O)c3cc4ccccc4[nH]3)n2)cc(OC)c1O [Comp. 53, N′-[4-(4-hydroxy-3,5-dimethoxyphenyl)-1,3-thiazol-2-yl]-1H-indole-2-carbohydrazide]	3.77	> 200 µM	−7.3%	–	49.9%	–	–	–
O=C(NNc1nc(-c2ccc3ccccc3c2)cs1)c1ccc(C(F)(F)F)cc1 [Comp. 50, N′-[4-(2-naphthyl)-1,3-thiazol-2-yl]-4-(trifluoromethyl)benzohydrazide]	–	–	−7.6%	–	–	–	–	52.6%
O=C(NNc1nc(-c2ccc([N+](=O)[O-])cc2)cs1)c1ccc2ccccc2c1 [Comp. 20, N′-(4-(4-Nitrophenyl)thiazol-2-yl)-2-naphthohydrazide]	–	–	18.7%	–	–	0.4 µM	4.87	–
O=C(NNc1nc(-c2ccccc2)cs1)c1ccc(F)cc1 [Comp. 24, 4-fluoro-N′-(4-phenyl-1,3-thiazol-2-yl)benzohydrazide]	–	–	5.5%	–	–	16.5 µM	4.47	–
O=C(NNc1nc(-c2ccc(Br)cc2)cs1)Nc1ccccc1 [Comp. 30, 2-[4-(4-bromophenyl)-1,3-thiazol-2-yl]-N-phenylhydrazinecarboxamide]	–	–	6.4%	–	–	> 200 µM	3.83	–
O=C(NNc1nc(-c2cc3ccccc3oc2=O)cs1)c1ccc(-c2ccccc2)cc1 [Comp. 47, N′-[4-(2-oxo-2H-chromen-3-yl)-1,3-thiazol-2-yl]-1,1′-biphenyl-4-carbohydrazide]	–	–	44.7%	–	–	> 200 µM	< 3.70	–
O=C(NNc1nc(-c2cc3ccccc3o2)cs1)c1ccc(Cl)cc1 [Comp. 26, N′-[4-(1-benzofuran-2-yl)-1,3-thiazol-2-yl]-4-chlorobenzohydrazide]	–	–	−0.6%	–	–	21.3 µM	4.33	–
O=C(NNc1nc(-c2ccc(Br)cc2)cs1)c1ccc(F)cc1 [Comp. 40, N′-[4-(4-bromophenyl)-1,3-thiazol-2-yl]-4-fluorobenzohydrazide]	–	–	4.9%	–	–	> 200 µM	< 3.70	–
O=C(NNc1nc(-c2cc3ccccc3oc2=O)cs1)c1ccc(F)cc1 [Comp. 5, 4-Fluoro-N′-(4-(2-oxo-2H-chromen-3-yl)thiazol-2-yl)benzohydrazide]	–	–	8.6%	–	–	> 200 µM	4.33	–
Cc1nc(NNC(=O)c2ccc(-c3ccccc3)cc2)sc1-c1ccc(Br)cc1 [Comp. 64, N′-[5-(4-bromophenyl)-4-methyl-1,3-thiazol-2-yl]-1,1′-biphenyl-4-carbohydrazide]	–	–	8.9%	–	–	–	< 3.70	–
O=C(NNc1nc(-c2ccccc2)cs1)c1cccnc1 [Comp. 1, N′-(4-Phenylthiazol-2-yl)nicotinohydrazide]	–	–	56.8%	–	–	1.7 µM	4.77	–
O=C(NNc1nc(-c2ccc(Br)cc2)cs1)c1ccc2c(c1)OCO2 [Comp. 38, N′-[4-(4-bromophenyl)-1,3-thiazol-2-yl]-1,3-benzodioxole-5-carbohydrazide]	–	–	4.6%	–	–	> 200 µM	< 3.70	–
Cc1sc(NNC(=O)c2ccc(F)cc2)nc1-c1ccccc1 [Comp. 32, 4-fluoro-N′-(5-methyl-4-phenyl-1,3-thiazol-2-yl)benzohydrazide]	–	–	18.4%	–	–	> 200 µM	3.71	–
O=C(NNc1nc(-c2ccccc2)cs1)c1ccc(-c2ccccc2)cc1 [Comp. 37, N′-(4-phenyl-1,3-thiazol-2-yl)-1,1′-biphenyl-4-carbohydrazide]	–	–	3.6%	–	–	> 200 µM	< 3.70	–
O=C(CCc1ccccc1)NNc1nc(-c2ccc(Br)cc2)cs1 [Comp. 36, N′-[4-(4-bromophenyl)-1,3-thiazol-2-yl]-3-phenylpropanohydrazide]	–	–	3.3%	–	–	> 200 µM	< 3.70	–
O=C(NNc1nc(-c2ccc(Br)cc2)cs1)c1cccnc1 [Comp. 12, N′-[4-(4-bromophenyl)-1,3-thiazol-2-yl]nicotinohydrazide]	–	–	13.6%	–	–	0.5 µM	5.48	–
O=C(NNc1nc(-c2cccc([N+](=O)[O-])c2)cs1)c1ccccc1Cl [Comp. 25, 2-chloro-N′-[4-(3-nitrophenyl)-1,3-thiazol-2-yl]benzohydrazide]	–	–	43.0%	–	–	> 200 µM	4.45	–
